The text below walks through data of ChEMBL document CHEMBL1140089 (J Med Chem, 2008).

This assay has as its target MAP kinase-activated protein kinase 2 (Homo sapiens, UniProt P49137). The assay is described as follows: Inhibition of human recombinant MK2 expressed in Escherichia coli BL21(DE3) after 60 mins.

Some results are limits rather than exact numbers.

Sequence of MAP kinase-activated protein kinase 2 (P49137 whole entry): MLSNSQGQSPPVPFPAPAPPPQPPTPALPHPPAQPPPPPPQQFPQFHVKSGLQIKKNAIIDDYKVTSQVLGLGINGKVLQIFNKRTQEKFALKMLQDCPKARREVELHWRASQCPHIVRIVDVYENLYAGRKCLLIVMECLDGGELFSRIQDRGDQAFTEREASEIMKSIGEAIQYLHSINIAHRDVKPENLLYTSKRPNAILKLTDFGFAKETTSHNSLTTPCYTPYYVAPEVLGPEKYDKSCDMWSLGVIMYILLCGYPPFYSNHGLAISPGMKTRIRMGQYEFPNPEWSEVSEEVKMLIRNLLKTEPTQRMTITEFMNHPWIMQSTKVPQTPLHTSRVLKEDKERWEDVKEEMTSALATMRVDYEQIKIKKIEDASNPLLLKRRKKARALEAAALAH

Turning to `Oc1cccc2cnccc12`, the half-maximal inhibitory concentration (IC50) was determined as 85 µM.
For `Oc1cccc2ccccc12` [1-NAPHTHOL] the value was more than 100 µM.

The term IC50 denotes the concentration that gives 50% inhibition.
